Test results taken from ChEMBL document CHEMBL1201862, “PubChem BioAssay data set” (2004).
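96-well plates; 48 h exposure; 5 concentrations. Endpoints by linear interpolation between flanking doses. Not reached: highest tested concentration assigned. At the GI50, growth is halved.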 Calls of active or inactive are those of the source. No stated cut-off is given here; in the data, active = GI50 up to about 1.1 µM and inactive = higher.

How the values were obtained:
Assay in all cases: inhibition of tumour cell growth, NCI panel, 48 h
786-0 = tested on: 786-0
CCRF-CEM = tested on: CCRF-CEM
HCC 2998 = tested on: HCC 2998
HCT-116 = tested on: HCT-116
HT-29 = tested on: HT-29
M14 = tested on: M14
OVCAR-3 = tested on: OVCAR-3
RPMI-8226 = tested on: RPMI-8226
SF-295 = tested on: SF-295
SF-539 = tested on: SF-539
SK-OV-3 = tested on: SK-OV-3
SNB-19 = tested on: SNB-19
UACC-257 = tested on: UACC-257
UO-31 = tested on: UO-31
KM12 = tested on: KM12
RXF 393 = tested on: RXF 393
SNB-75 = tested on: SNB-75
U-251 = tested on: U-251

Measured: GI50

C/C=C1\CN(C(=O)OC(C)(C)C)C1C(=O)OC(C)(C)C (stereo not drawn)
inactive: 786-0 > 100 µM | CCRF-CEM > 100 µM | HCC 2998 > 100 µM | HCT-116 > 100 µM | HT-29 > 100 µM | M14 > 100 µM | OVCAR-3 94 µM | RPMI-8226 68.7 µM | SF-295 > 100 µM | SF-539 > 100 µM | SK-OV-3 > 100 µM | SNB-19 > 100 µM | UACC-257 > 100 µM | UO-31 63.7 µM

Sc1nnc(-c2cccnc2)[nH]1
inactive: 786-0 > 100 µM | CCRF-CEM > 100 µM | HCC 2998 > 100 µM | HCT-116 > 100 µM | HT-29 > 100 µM | KM12 > 100 µM | M14 > 100 µM | RPMI-8226 > 100 µM | RXF 393 > 100 µM | SF-295 > 100 µM | SK-OV-3 > 100 µM | SNB-19 > 100 µM | SNB-75 > 100 µM | U-251 > 100 µM | UACC-257 > 100 µM

Cc1ccccc1N/C(N)=N/C#N
inactive: 786-0 > 100 µM | CCRF-CEM > 100 µM | HCC 2998 > 100 µM | HCT-116 > 100 µM | HT-29 > 100 µM | M14 > 100 µM | RPMI-8226 > 100 µM | RXF 393 > 100 µM | SF-539 > 100 µM | SK-OV-3 > 100 µM | SNB-19 > 100 µM | SNB-75 > 100 µM | U-251 > 100 µM | UACC-257 > 100 µM | UO-31 > 100 µM

N#Cc1nc(/C=C/c2cccs2)oc1N
inactive: 786-0 > 100 µM | CCRF-CEM 25.4 µM | HCT-116 > 100 µM | HT-29 > 100 µM | KM12 > 100 µM | M14 97.5 µM | RPMI-8226 27.8 µM | RXF 393 > 100 µM | SK-OV-3 > 100 µM | SNB-19 > 100 µM | SNB-75 > 100 µM | U-251 95.3 µM | UACC-257 > 100 µM | UO-31 10.4 µM

[N-]=[N+]=NC1C(Cl)C(=O)NC(=O)N1[C@H]1C[C@H](O)[C@@H](CO)O1 (stereo partly drawn)
inactive: 786-0 > 100 µM | HCC 2998 > 100 µM | HT-29 > 100 µM | KM12 > 100 µM | M14 > 100 µM | OVCAR-3 > 100 µM | RXF 393 > 100 µM | SF-295 > 100 µM | SF-539 > 100 µM | SK-OV-3 > 100 µM | SNB-19 > 100 µM | SNB-75 > 100 µM | U-251 > 100 µM | UACC-257 > 100 µM | UO-31 > 100 µM
